Data published in PubChem BioAssay AID248 (DTP/NCI, 2004).
Several values for one entry are separate records, joined by “and”; a condition that tells them apart may be missing. Equal values may be shown once. Inconclusive results and toxic doses are left out. Rule as the data show it: active = T/C of 150% or more; inactive = T/C below 125%.

System: L1210 leukemia ip in BDF1 mice, survival T/C
Test: NCI In Vivo Anticancer Drug Screen. Data for tumor model L1210 Leukemia (intraperitoneal) in B6D2F1 (BDF1) mice
Conditions: endpoint: mean survival time, higher = longer survival
Summary of the method: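 Tumor was transplanted into mice, which were then dosed with test compound or vehicle alone. Survival was recorded for each group, and the treated figure was expressed relative to the control figure.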

[1] = dose: 100.0 mg/kg/injection, schedule: Q04DX003 (ip), vehicle: Klucel (hydroxypropylcellulose) (HPC)
[2] = dose: 200.0 mg/kg/injection, schedule: Q04DX003 (ip), vehicle: Klucel (hydroxypropylcellulose) (HPC)
[3] = dose: 400.0 mg/kg/injection, schedule: Q04DX003 (ip), vehicle: Klucel (hydroxypropylcellulose) (HPC)
[4] = dose: 100.0 mg/kg/injection, schedule: Q01DX009 (ip), vehicle: saline with Tween-80
[5] = dose: 100.0 mg/kg/injection, schedule: Q04DX003 (ip), vehicle: saline with Tween-80
[6] = dose: 200.0 mg/kg/injection, schedule: Q01DX009 (ip), vehicle: saline with Tween-80
[7] = dose: 200.0 mg/kg/injection, schedule: Q04DX003 (ip), vehicle: saline with Tween-80
[8] = dose: 400.0 mg/kg/injection, schedule: Q01DX009 (ip), vehicle: saline with Tween-80
[9] = dose: 400.0 mg/kg/injection, schedule: Q04DX003 (ip), vehicle: saline with Tween-80
[10] = dose: 100.0 mg/kg/injection, schedule: Q01DX009 (ip), vehicle: saline
[11] = dose: 100.0 mg/kg/injection, schedule: Q04DX003 (ip), vehicle: saline
[12] = dose: 200.0 mg/kg/injection, schedule: Q01DX009 (ip), vehicle: saline
[13] = dose: 200.0 mg/kg/injection, schedule: Q04DX003 (ip), vehicle: saline
[14] = dose: 400.0 mg/kg/injection, schedule: Q01DX009 (ip), vehicle: saline
[15] = dose: 400.0 mg/kg/injection, schedule: Q04DX003 (ip), vehicle: saline
[16] = dose: 100.0 mg/kg/injection, schedule: Q01DX009 (ip), vehicle: Klucel (hydroxypropylcellulose) (HPC)
[17] = dose: 200.0 mg/kg/injection, schedule: Q01DX009 (ip), vehicle: Klucel (hydroxypropylcellulose) (HPC)
[18] = dose: 400.0 mg/kg/injection, schedule: Q01DX009 (ip), vehicle: Klucel (hydroxypropylcellulose) (HPC)
[19] = dose: 100.0 mg/kg/injection, schedule: Q01DX001 (ip), vehicle: saline
[20] = dose: 200.0 mg/kg/injection, schedule: Q01DX001 (ip), vehicle: saline
[21] = dose: 400.0 mg/kg/injection, schedule: Q01DX001 (ip), vehicle: saline

Measured: T/C

Nc1nc2nc(N=Nc3ccc(C(=O)O)cc3)[nH]c2c(=O)[nH]1
inactive: [1] 96 % of control | [2] 91 % of control | [3] 99 % of control

CCC(c1ccc(Cl)cc1)N1CCC2(CC1)C(=O)NCN2c1ccccc1 (configuration not stated)
inactive: [4] 94 % of control | [5] 102 % of control | [6] 96 % of control | [7] 104 % of control | [8] 89 % of control | [9] 91 % of control

C=CC[N+](CC=C)(CC=C)C/C=C/C[N+](CC=C)(CC=C)CC=C
inactive: dose: 6.25 mg/kg/injection, schedule: Q01DX009 (ip), vehicle: water 95 % of control | dose: 12.5 mg/kg/injection, schedule: Q01DX009 (ip), vehicle: water 94 % of control and 91 % of control | dose: 25.0 mg/kg/injection, schedule: Q01DX009 (ip), vehicle: water 93 % of control and 101 % of control | dose: 50.0 mg/kg/injection, schedule: Q01DX009 (ip), vehicle: water 104 % of control

CCCCCCC(C)OB(OC(C)CCCCCC)OC(C)CCCCCC (configuration not stated)
inactive: [1] 103 % of control | [2] 95 % of control | [3] 93 % of control

Cc1c(CC(Cl)Cl)cc(-c2ccccc2)c2ccccc12
inactive: [1] 96 % of control | [2] 92 % of control | [3] 100 % of control

CCN(CC)CCOC(=O)c1cccnc1
inactive: dose: 25.0 mg/kg/injection, schedule: Q01DX009 (ip), vehicle: saline 96 % of control | dose: 25.0 mg/kg/injection, schedule: Q04DX003 (ip), vehicle: saline 103 % of control | dose: 50.0 mg/kg/injection, schedule: Q01DX009 (ip), vehicle: saline 94 % of control | dose: 50.0 mg/kg/injection, schedule: Q04DX003 (ip), vehicle: saline 97 % of control | [10] 100 % of control | [11] 97 % of control | [12] 86 % of control | [13] 95 % of control | [14] 107 % of control | [15] 101 % of control

Clc1ccc(OCCOc2ccc(Cl)cc2)cc1
inactive: [5] 95 % of control | [7] 92 % of control | [9] 106 % of control

Cc1ccc(-n2c(=S)[nH]c3ccccc3c2=O)cc1F
inactive: [5] 94 % of control | [7] 93 % of control | [9] 89 % of control

COc1ccc(/C=C(\CC(=O)O)C(=O)O)cc1OC
inactive: [16] 92 % of control | [1] 96 % of control | [17] 95 % of control | [2] 91 % of control | [18] 95 % of control | [3] 102 % of control

C1CC[N+]2=C(C1)OCCC2
inactive: dose: 30.0 mg/kg/injection, schedule: Q01DX009 (ip), vehicle: saline 93 % of control | dose: 44.0 mg/kg/injection, schedule: Q01DX009 (ip), vehicle: saline 100 % of control | dose: 60.0 mg/kg/injection, schedule: Q01DX009 (ip), vehicle: saline 106 % of control | dose: 66.0 mg/kg/injection, schedule: Q01DX009 (ip), vehicle: saline 103 % of control | [10] 102 % of control and 103 % of control | [11] 101 % of control | dose: 150.0 mg/kg/injection, schedule: Q01DX009 (ip), vehicle: saline 100 % of control and 104 % of control | [13] 101 % of control | [15] 91 % of control

CC(C)CCCCCCCCCCCCC(=O)NCC(=O)NC1C(O)C(O)C(Nc2ncnc3nc[nH]c23)OC1C(O)CO (configuration not stated)
inactive: dose: 0.3 mg/kg/injection, schedule: Q## X000 (ip), vehicle: carboxymethylcellulose (CMC) 100 % of control | dose: 0.4 mg/kg/injection, schedule: Q01DX Z (ip), vehicle: carboxymethylcellulose (CMC) 107 % of control | dose: 0.44 mg/kg/injection, schedule: Q## X000 (ip), vehicle: carboxymethylcellulose (CMC) 107 % of control | dose: 0.6 mg/kg/injection, schedule: Q01DX Z (ip), vehicle: carboxymethylcellulose (CMC) 104 % of control | dose: 0.66 mg/kg/injection, schedule: Q## X000 (ip), vehicle: carboxymethylcellulose (CMC) 98 % of control | dose: 0.9 mg/kg/injection, schedule: Q01DX Z (ip), vehicle: carboxymethylcellulose (CMC) 103 % of control | dose: 1.0 mg/kg/injection, schedule: Q01DX001 (ip), vehicle: saline 101 % of control | dose: 1.0 mg/kg/injection, schedule: Q## X000 (ip), vehicle: carboxymethylcellulose (CMC) 110 % of control | dose: 1.35 mg/kg/injection, schedule: Q01DX Z (ip), vehicle: carboxymethylcellulose (CMC) 107 % of control | dose: 2.0 mg/kg/injection, schedule: Q01DX001 (ip), vehicle: saline 98 % of control | dose: 4.0 mg/kg/injection, schedule: Q01DX001 (ip), vehicle: saline 98 % of control | dose: 8.0 mg/kg/injection, schedule: Q01DX001 (ip), vehicle: saline 101 % of control | dose: 12.0 mg/kg/injection, schedule: Q01DX001 (ip), vehicle: saline 105 % of control | dose: 18.0 mg/kg/injection, schedule: Q01DX001 (ip), vehicle: saline 112 % of control | dose: 27.0 mg/kg/injection, schedule: Q01DX001 (ip), vehicle: saline 96 % of control

O=C(O)C1=C(C(=O)O)C2CCCC3C4CCCCC4N(N1)C23 (configuration not stated)
inactive: dose: 75.0 mg/kg/injection, schedule: Q01DX001 (ip), vehicle: acetone 117 % of control | dose: 150.0 mg/kg/injection, schedule: Q01DX001 (ip), vehicle: acetone 104 % of control | dose: 300.0 mg/kg/injection, schedule: Q01DX001 (ip), vehicle: acetone 118 % of control

O=C(Oc1cccc(O)c1)c1ccccc1
inactive: [16] 100 % of control | [17] 102 % of control | [18] 94 % of control

O=C(O)C1CCC(=O)C2CCCCC12 (configuration not stated)
inactive: [19] 97 % of control | [20] 94 % of control | [21] 95 % of control

CCCCCCCCCCC1CC2CCCC3CCC4CCCC1C4C32 (configuration not stated)
inactive: dose: 100.0 mg/kg/injection, schedule: Q01DX001 (ip), vehicle: saline with Tween-80 95 % of control | dose: 200.0 mg/kg/injection, schedule: Q01DX001 (ip), vehicle: saline with Tween-80 108 % of control | dose: 400.0 mg/kg/injection, schedule: Q01DX001 (ip), vehicle: saline with Tween-80 100 % of control

CC(=O)NC(CO)(CO)CO
inactive: [19] 94 % of control | [10] 94 % of control | [20] 102 % of control | [12] 89 % of control | [21] 98 % of control | [14] 90 % of control

Cc1cc2nc3[nH]c(=O)c4c(n3c2cc1C)CCC4
inactive: dose: 50.0 mg/kg/injection, schedule: Q04DX002 (ip), vehicle: saline 87 % of control | dose: 100.0 mg/kg/injection, schedule: Q04DX002 (ip), vehicle: saline 108 % of control | dose: 200.0 mg/kg/injection, schedule: Q04DX002 (ip), vehicle: saline 112 % of control

COc1ccc(C=Nc2ccccc2N=Cc2ccc(OC)c(OC)c2)cc1OC
inactive: [4] 106 % of control | [5] 96 % of control | [6] 97 % of control | [7] 93 % of control | [8] 106 % of control | [9] 93 % of control
